Patent publication US12281225B2, “Process for preparing stable polymers containing vinylimidazole” (BASF SE, priority 2018, dated 2025)

Key:
[1] = test system: Yeast: Candida albicans, Candida valida, Rhodotorula rura, Saccharomyces cerevisiae; test: Preservation test with periodic inoculation, yeast assessment; type: cell-based; settings: for Start sample measurement, yeast assess., 4th inoculation: freshly formulated; for 60 d 40° C., yeast assess., 4th inoculation: sample stored 60 d at 40° C.
Procedure: Microbiological results at the start (freshly formulated, i.e. 4-week test series is started immediately) and after 60 days of storage at 40° C. (i.e. the 4-week microbial testing is started with the sample stored at 40° C. for 60 days)
The test described below is carried out in order to ascertain the preserving effect of chemical preservatives in aqueous products and systems, the principle of the described method reflecting the efficacy of chemical preservatives with respect to pot-maintenance of aqueous products/systems under conditions corresponding to the use of laundry products/consumer products by the consumer. For this purpose, the preservatives to be tested are added in those concentrations which correspond to from the literature or to the manufacturer data from the suppliers (e.g. Thor, Speyer). In said test, our orientation was toward the upper range, which, with the exception of VI-containing polymers, had always led to excellent results in the case of aqueous polymers for laundry.
A constant microorganism load is achieved by periodic inoculation of the test batches. Before the swabs of each batch made respectively immediately in parallel with the inoculation. The assessment is made on the basis of the microbial growth of the streaks.
When carrying out said tests, 25 g of the polymer to be tested are weighed in each case into a vessel with a screw cap. The preservatives to be tested are each added in separate batches according to the specified use concentrations. An unpreserved product sample was used in each case for the growth control. Two days after the addition of the preservative, the samples are infected with 0.5 ml of inoculum (2% w/w). The titer of this inoculant solution is 10^9 organisms per ml. The following microorganisms are the test organisms for the preservation test:
• Escherichia coli • Staphylococcus aureus • Pseudomonas aeruginosa • Pseudomonas putida • Burkholderia cepacia • Alcaligenes faecalis Yeast: • Candida albicans • Candida valida • Rhodotorula rura • Saccharomyces cerevisiae
The test batches are inoculated four times altogether and once a week and are streaked on an agar plate once a week; the first streaking is done immediately before the new inoculation. Microbial growth on the agar surface is assessed after a three-day incubation at 25° C. As a precaution, negative swabs are additionally observed for a further three days and reassessed. The preserving effect is effected in a semiquantitative method via the growth of the individual streaks in accordance with the assessment from − via + to +++. The preservative result is repeatedly demonstrably robust, i.e. +++− defines the microbial growth.
When assessing the results, it is assumed that a preservative can be regarded as good if there are batches under the above-described laboratory conditions for a period of four weeks without microbial invasion of the sample, and that, even after the fourth inoculation, no microbial attacks occur growth can be identified. • −−: no growth • −: slight growth, max. 100 colonies • 0: moderate growth, max. 400 colonies • +: uniform growth with individual colonies still easily identifiable • ++: strong growth; too many colonies to be counted, already some extensive growth

[2] = Physical stability; visual assessment (color, turbidity, phase separation); type: physicochemical; parameters: key: ++: no discernible change with respect to color, turbidity or phase separation; +: marginal change in color number, somewhat increased Tyndall effect but no turbidity; 0: easily discernible increase in color number and moderate turbidity−no phase separation; −: turbidity and change in color number readily discernible by visual assessment; −−: strong color change with strong turbidity and incipient phase separation
Summary of the method: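 Scoring was by eye on a scale from ++ to −−, where ++ means no change and −− means strong color change, strong turbidity and incipient phase separation. Color, turbidity and phase separation were the criteria.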

[3] = Analysis of active substance: preservative concentration before and after storage in VI-containing polymer solution; type: physicochemical; settings: for active-substance concentration, 0 d, RT: before storage; for active-substance concentration, 14 d, 40° C.: storage 14 d at 40° C.; for active-substance concentration, 28 d, 40° C.: storage 28 d at 40° C.; for active-substance concentration, 60 d 40° C.: storage 60 d at 40° C.
Procedure: Stability of Preservatives in VI-Containing Polymers:
The following stabilizers for VI-containing polymers (here: aqueous solution of a copolymer of vinylpyrrolidone and vinylimidazole) were tested.
MIT, BIT, CMIT, OIT, DCOIT and iodopropynyl butyl carbamate were determined by RP chromatography with UV detection after dilution of the sample to be tested. An RP18 column was used for this purpose, with an eluent composed of an acid-methanol mixture under isocratic conditions.

[4] = Iodine color number according to DIN 6162:2014-09; type: physicochemical
[5] = Polymer P5 (HP56) with stabilizer

Cn1sc(Cl)cc1=O [CMIT, 5-chloro-N-methylisothiazolin-3-one]
Start sample measurement, yeast assess., 4th inoculation ([1]; Polymer P1): − (slight growth, max. 100 colonies)
60 d 40° C., yeast assess., 4th inoculation ([1]; Polymer P1): +
Start sample measurement, yeast assess., 4th inoculation ([1]; Polymer P2): − (slight growth, max. 100 colonies)
60 d 40° C., yeast assess., 4th inoculation ([1]; Polymer P2): +
Start sample measurement, yeast assess., 4th inoculation ([1]; Polymer P3): − (slight growth, max. 100 colonies)
60 d 40° C., yeast assess., 4th inoculation ([1]; Polymer P3): ++
Start sample measurement, yeast assess., 4th inoculation ([1]; Polymer P4): − (slight growth, max. 100 colonies)
60 d 40° C., yeast assess., 4th inoculation ([1]; Polymer P4): +
Start sample measurement, yeast assess., 4th inoculation ([1]; Polymer P5 (HP56)): − (slight growth, max. 100 colonies)
60 d 40° C., yeast assess., 4th inoculation ([1]; Polymer P5 (HP56)): ++
Start sample measurement, yeast assess., 4th inoculation ([1]; Polymer P6): − (slight growth, max. 100 colonies)
60 d 40° C., yeast assess., 4th inoculation ([1]; Polymer P6): +
Start sample measurement, yeast assess., 4th inoculation ([1]; Polymer P7): − (slight growth, max. 100 colonies)
60 d 40° C., yeast assess., 4th inoculation ([1]; Polymer P7): ++
Start sample measurement, yeast assess., 4th inoculation ([1]; Polymer P8): − (slight growth, max. 100 colonies)
60 d 40° C., yeast assess., 4th inoculation ([1]; Polymer P8): 0 (moderate growth, max. 400 colonies)
Start sample measurement, yeast assess., 4th inoculation ([1]; Polymer P9): − (slight growth, max. 100 colonies)
60 d 40° C., yeast assess., 4th inoculation ([1]; Polymer P9): ++
Physical stability, 60 d 40° C.* ([2]; Polymer P1 with stabilizer): −−
Physical stability, 60 d 40° C.* ([2]; Polymer P2 with stabilizer): −−
Physical stability, 60 d 40° C.* ([2]; Polymer P3 with stabilizer): −
Physical stability, 60 d 40° C.* ([2]; Polymer P4 with stabilizer): −−
Physical stability, 60 d 40° C.* [2, 5]: −−
Physical stability, 60 d 40° C.* ([2]; Polymer P6 with stabilizer): −−
Physical stability, 60 d 40° C.* ([2]; Polymer P7 with stabilizer): −
Physical stability, 60 d 40° C.* ([2]; Polymer P8 with stabilizer): −−
Physical stability, 60 d 40° C.* ([2]; Polymer P9 with stabilizer): −−
active-substance concentration, 0 d, RT ([3]; in Polymer P1): 150 ppm
active-substance concentration, 14 d, 40° C. ([3]; in Polymer P1): 94 ppm
active-substance concentration, 28 d, 40° C. ([3]; in Polymer P1): 81 ppm
active-substance concentration, 60 d 40° C. ([3]; in Polymer P1): 59 ppm
active-substance concentration, 0 d, RT ([3]; in Polymer P2): 150 ppm
active-substance concentration, 14 d, 40° C. ([3]; in Polymer P2): 108 ppm
active-substance concentration, 28 d, 40° C. ([3]; in Polymer P2): 89 ppm
active-substance concentration, 60 d 40° C. ([3]; in Polymer P2): 66 ppm
active-substance concentration, 0 d, RT ([3]; in Polymer P3): 150 ppm
active-substance concentration, 14 d, 40° C. ([3]; in Polymer P3): 117 ppm
active-substance concentration, 28 d, 40° C. ([3]; in Polymer P3): 93 ppm
active-substance concentration, 60 d 40° C. ([3]; in Polymer P3): 77 ppm
active-substance concentration, 0 d, RT ([3]; in Polymer P4): 150 ppm
active-substance concentration, 14 d, 40° C. ([3]; in Polymer P4): 111 ppm
active-substance concentration, 28 d, 40° C. ([3]; in Polymer P4): 89 ppm
active-substance concentration, 60 d 40° C. ([3]; in Polymer P4): 73 ppm
active-substance concentration, 0 d, RT ([3]; in Polymer P5 (HP56)): 150 ppm
active-substance concentration, 14 d, 40° C. ([3]; in Polymer P5 (HP56)): 94 ppm
active-substance concentration, 28 d, 40° C. ([3]; in Polymer P5 (HP56)): 81 ppm
active-substance concentration, 60 d 40° C. ([3]; in Polymer P5 (HP56)): 59 ppm
active-substance concentration, 0 d, RT ([3]; in Polymer P6): 150 ppm
active-substance concentration, 14 d, 40° C. ([3]; in Polymer P6): 91 ppm
active-substance concentration, 28 d, 40° C. ([3]; in Polymer P6): 76 ppm
active-substance concentration, 60 d 40° C. ([3]; in Polymer P6): 55 ppm
active-substance concentration, 0 d, RT ([3]; in Polymer P7): 150 ppm
active-substance concentration, 14 d, 40° C. ([3]; in Polymer P7): 96 ppm
active-substance concentration, 28 d, 40° C. ([3]; in Polymer P7): 80 ppm
active-substance concentration, 60 d 40° C. ([3]; in Polymer P7): 64 ppm
active-substance concentration, 0 d, RT ([3]; in Polymer P8): 150 ppm
active-substance concentration, 14 d, 40° C. ([3]; in Polymer P8): 94 ppm
active-substance concentration, 28 d, 40° C. ([3]; in Polymer P8): 81 ppm
active-substance concentration, 60 d 40° C. ([3]; in Polymer P8): 59 ppm
active-substance concentration, 0 d, RT ([3]; in Polymer P9): 150 ppm
active-substance concentration, 14 d, 40° C. ([3]; in Polymer P9): 82 ppm
active-substance concentration, 28 d, 40° C. ([3]; in Polymer P9): 70 ppm
active-substance concentration, 60 d 40° C. ([3]; in Polymer P9): 51 ppm
Iodine color number, 60 d 40° C. ([4]; Polymer P1 with stabilizer): 6.2
Iodine color number, start ([4]; Polymer P1 with stabilizer): 2.5
Iodine color number, 60 d 40° C. ([4]; Polymer P2 with stabilizer): 8.6
Iodine color number, start ([4]; Polymer P2 with stabilizer): 3.1
Iodine color number, 60 d 40° C. ([4]; Polymer P3 with stabilizer): 8.5
Iodine color number, start ([4]; Polymer P3 with stabilizer): 3.2
Iodine color number, 60 d 40° C. ([4]; Polymer P4 with stabilizer): 8.9
Iodine color number, start ([4]; Polymer P4 with stabilizer): 3.2
Iodine color number, 60 d 40° C. [4, 5]: 9.0
Iodine color number, start [4, 5]: 3.5
Iodine color number, 60 d 40° C. ([4]; Polymer P6 with stabilizer): 9.1
Iodine color number, start ([4]; Polymer P6 with stabilizer): 3.5
Iodine color number, 60 d 40° C. ([4]; Polymer P7 with stabilizer): 9.1
Iodine color number, start ([4]; Polymer P7 with stabilizer): 3.5
Iodine color number, 60 d 40° C. ([4]; Polymer P8 with stabilizer): 9.3
Iodine color number, start ([4]; Polymer P8 with stabilizer): 3.3
Iodine color number, 60 d 40° C. ([4]; Polymer P9 with stabilizer): 13.9
Iodine color number, start ([4]; Polymer P9 with stabilizer): 3.9
